≈ marks a conversion by molar mass, not a printed value.
Assays:
Enterococcus faecalis [1] = experiment: Antibacterial activity against Enterococcus faecalis; type: functional
[2] = test system: Staphylococcus saprophyticus; experiment: Antibacterial activity against Staphylococcus saprophyticus; type: functional
Enterococcus faecalis [3] = experiment: Antibiofilm activity against Enterococcus faecalis; type: functional
Escherichia coli [4] = experiment: Antibacterial activity against Escherichia coli AG102 in presence of ciprofloxacin; type: functional
Escherichia coli [5] = experiment: Antibacterial activity against Escherichia coli AG102; type: functional
Escherichia coli [6] = experiment: Antibacterial activity against Escherichia coli MTCC 40 after 7 days by two-fold serial dilution method; type: functional; settings: MTCC 40, 168 h, time 7 day
Staphylococcus aureus [7] = experiment: Antibacterial activity against Staphylococcus aureus MTCC 121 after 7 days by two-fold serial dilution method; type: functional; settings: MTCC 121, 168 h, time 7 day
Pseudomonas aeruginosa [8] = experiment: Antibacterial activity against Pseudomonas aeruginosa MTCC 2453 after 7 days by two-fold serial dilution method; type: functional; settings: MTCC 2453, 168 h, time 7 day
Bacillus subtilis [9] = experiment: Antibacterial activity against Bacillus subtilis […] after 7 days by two-fold serial dilution method; type: functional; settings: 168 h, time 7 day
Staphylococcus aureus [10] = experiment: Antibacterial activity against Staphylococcus aureus ATCC 25923 by CLSI protocol based microdilution method; type: functional, organism-based
Staphylococcus aureus [11] = experiment: Antibacterial activity against Staphylococcus aureus ATCC 6538 by CLSI protocol based microdilution method; type: functional, organism-based
Staphylococcus aureus [12] = experiment: Antibacterial activity against Staphylococcus aureus ATCC 49444 after 24 hrs by CLSI protocol based cup-plate agar diffusion method; type: functional
Pseudomonas aeruginosa [13] = experiment: Antibacterial activity against Pseudomonas aeruginosa ATCC 27853 after 24 hrs by CLSI protocol based cup-plate agar diffusion method; type: functional
Listeria monocytogenes = experiment: Antibacterial activity against Listeria monocytogenes ATCC 19115 after 24 hrs by CLSI protocol based cup-plate agar diffusion method; type: functional
Salmonella typhimurium = experiment: Antibacterial activity against Salmonella typhimurium ATCC 14028 after 24 hrs by CLSI protocol based cup-plate agar diffusion method; type: functional, Salmonella enterica subsp. enterica serovar Typhimurium; settings: Salmonella enterica
Bacillus subtilis [14] = experiment: Antibacterial activity against Bacillus subtilis; type: functional
Staphylococcus aureus [15] = experiment: Antibacterial activity against Staphylococcus aureus; type: functional
Micrococcus luteus = experiment: Antibacterial activity against Micrococcus luteus; type: functional
Escherichia coli [16] = experiment: Antibacterial activity against Escherichia coli; type: functional
Pseudomonas aeruginosa [17] = experiment: Antibacterial activity against Pseudomonas aeruginosa; type: functional
Raoultella planticola = experiment: Antibacterial activity against Klebsiella planticola; type: functional
Staphylococcus aureus [18] = experiment: Antibacterial activity against Staphylococcus aureus MLS16; type: functional

## Clc1ccc(-c2csc(-c3cccc(-c4csc(-c5ccccc5)n4)c3)n2)cc1
Enterococcus faecalis [1]
  MIC: 32 µg/mL (≈ 74.2 µM)
[2]
  MIC: 2 µg/mL (≈ 4.64 µM)
Enterococcus faecalis [3]
  MBIC: 0.016 mg/mL

## CCc1ccc(C(=O)Nc2ccc(Cc3nc4ccccc4s3)cc2)cc1
Escherichia coli [4]
  MIC: 0.06 µg/mL
Escherichia coli [5]
  MIC: 64 µg/mL (≈ 172 µM)

## COc1ccc(-c2csc(-c3cccc(-c4csc(-c5ccccc5)n4)c3)n2)cc1
Enterococcus faecalis [1]
  MIC: 62 µg/mL (≈ 145 µM)
[2]
  MIC: 125 µg/mL (≈ 293 µM)
Enterococcus faecalis [3]
  MBIC: 0.004 mg/mL

## O=C(NN1C(=O)/C(=C/c2cccc([N+](=O)[O-])c2)SC1c1cccc(F)c1)c1ccc(-c2ccccc2)cc1 (centres undefined)
Escherichia coli [6]
  MIC: 12.5 µg/mL (≈ 23.8 µM)
Staphylococcus aureus [7]
  MIC: 6.25 µg/mL (≈ 11.9 µM)
Pseudomonas aeruginosa [8]
  MIC: 3.12 µg/mL (≈ 5.94 µM)
Bacillus subtilis [9]
  MIC: 6.25 µg/mL (≈ 11.9 µM)

## CC(C)(C)OC(=O)NCCn1cc(-c2nc(-c3c[nH]c4ccccc34)cs2)c2ccccc21
Staphylococcus aureus [10]
  IC50: 3.9 µg/mL (≈ 8.5 µM)
Staphylococcus aureus [11]
  IC50: 5.2 µg/mL (≈ 11.3 µM)

## O=C(NN1C(=O)/C(=C/c2ccc(Cl)cc2)SC1c1cccc(Br)c1)c1ccc(-c2ccccc2)cc1 (centres undefined)
Escherichia coli [6]
  MIC: 12.5 µg/mL (≈ 21.7 µM)
Staphylococcus aureus [7]
  MIC: 6.25 µg/mL (≈ 10.9 µM)
Pseudomonas aeruginosa [8]
  MIC: 6.25 µg/mL (≈ 10.9 µM)
Bacillus subtilis [9]
  MIC: 6.25 µg/mL (≈ 10.9 µM)

## O=C(Nc1ccc(Cc2nc3ccccc3s2)cc1)c1ccc([N+](=O)[O-])cc1
Escherichia coli [4]
  MIC: 0.06 µg/mL
Escherichia coli [5]
  MIC: 128 µg/mL (≈ 329 µM)

## O=C(NN1C(=O)/C(=C/c2cccc([N+](=O)[O-])c2)SC1c1ccccc1)c1ccc(-c2ccccc2)cc1 (centres undefined)
Escherichia coli [6]
  MIC: 6.25 µg/mL (≈ 12.3 µM)
Staphylococcus aureus [7]
  MIC: 3.12 µg/mL (≈ 6.15 µM)
Pseudomonas aeruginosa [8]
  MIC: 3.12 µg/mL (≈ 6.15 µM)
Bacillus subtilis [9]
  MIC: 1.56 µg/mL (≈ 3.07 µM)

## O=C(NN1C(=O)/C(=C/c2cccc(Br)c2)SC1c1cccc(Br)c1)c1ccc(-c2ccccc2)cc1 (centres undefined)
Escherichia coli [6]
  MIC: 6.25 µg/mL (≈ 10.1 µM)
Staphylococcus aureus [7]
  MIC: 3.12 µg/mL (≈ 5.03 µM)
Pseudomonas aeruginosa [8]
  MIC: 6.25 µg/mL (≈ 10.1 µM)
Bacillus subtilis [9]
  MIC: 3.12 µg/mL (≈ 5.03 µM)

## CCN(CC)c1ccc(/C=N\n2c(S)nnc2-c2sc(-c3ccccc3)nc2C)cc1
Staphylococcus aureus [12]
  MIC: 31.2 µg/mL (≈ 69.5 µM)
Pseudomonas aeruginosa [13]
  MIC: 1.9 µg/mL (≈ 4.24 µM)
Listeria monocytogenes
  MIC: 1.9 µg/mL (≈ 4.24 µM)
Salmonella typhimurium
  MIC: 62.5 µg/mL (≈ 139 µM)

## COc1ccc(/C=C2\SC(c3cccc(Br)c3)N(NC(=O)c3ccc(-c4ccccc4)cc3)C2=O)cc1 (centres undefined)
Escherichia coli [6]
  MIC: 1.56 µg/mL (≈ 2.73 µM)
Staphylococcus aureus [7]
  MIC: 3.12 µg/mL (≈ 5.46 µM)
Pseudomonas aeruginosa [8]
  MIC: 12.5 µg/mL (≈ 21.9 µM)
Bacillus subtilis [9]
  MIC: 1.56 µg/mL (≈ 2.73 µM)

## O=c1oc2ccccc2cc1-c1nn(-c2nc3ccccc3s2)cc1/C=N/Nc1nc(-c2ccc(-c3ccccc3)cc2)cs1
Bacillus subtilis [14]
  MIC: 7.8 µg/mL (≈ 12.5 µM)
Staphylococcus aureus [15]
  MIC: 7.8 µg/mL (≈ 12.5 µM)
Micrococcus luteus
  MIC: 7.8 µg/mL (≈ 12.5 µM)
Escherichia coli [16]
  MIC: 7.8 µg/mL (≈ 12.5 µM)
Pseudomonas aeruginosa [17]
  MIC: 7.8 µg/mL (≈ 12.5 µM)
Raoultella planticola
  MIC: 31.2 µg/mL (≈ 50.1 µM)
Staphylococcus aureus [18]
  MIC: 7.8 µg/mL (≈ 12.5 µM)

## COCCn1cc(-c2nc(-c3cn(C)c4ccccc34)cs2)c2cc(F)ccc21
Staphylococcus aureus [10]
  IC50: 0.2 µg/mL (≈ 0.493 µM)
Staphylococcus aureus [11]
  IC50: 21 µg/mL (≈ 51.8 µM)

## COCCn1cc(-c2csc(-c3cn(C)c4ccc(Br)cc34)n2)c2ccccc21
Staphylococcus aureus [10]
  IC50: 2.5 µg/mL (≈ 5.36 µM)

## O=C(NN1C(=O)/C(=C/c2ccc(Cl)cc2)SC1c1ccccc1)c1ccc(-c2ccccc2)cc1 (centres undefined)
Escherichia coli [6]
  MIC: 3.12 µg/mL (≈ 6.28 µM)
Staphylococcus aureus [7]
  MIC: 3.12 µg/mL (≈ 6.28 µM)
Pseudomonas aeruginosa [8]
  MIC: 12.5 µg/mL (≈ 25.1 µM)
Bacillus subtilis [9]
  MIC: 6.25 µg/mL (≈ 12.6 µM)

## O=C(NN1C(=O)/C(=C/c2ccccc2)SC1c1cccc(F)c1)c1ccc(-c2ccccc2)cc1 (centres undefined)
Escherichia coli [6]
  MIC: 6.25 µg/mL (≈ 13 µM)
Staphylococcus aureus [7]
  MIC: 6.25 µg/mL (≈ 13 µM)
Pseudomonas aeruginosa [8]
  MIC: 12.5 µg/mL (≈ 26 µM)
Bacillus subtilis [9]
  MIC: 3.12 µg/mL (≈ 6.49 µM)

## O=[N+]([O-])c1ccc(-c2csc(-c3cccc(-c4csc(-c5ccccc5)n4)c3)n2)cc1
Enterococcus faecalis [1]
  MIC: 62 µg/mL (≈ 140 µM)
[2]
  MIC: 32 µg/mL (≈ 72.5 µM)
Enterococcus faecalis [3]
  MBIC: 0.002 mg/mL

## O=C(Nc1ccc(Cc2nc3ccccc3s2)cc1)c1ccccc1
Escherichia coli [4]
  MIC: 0.016 µg/mL
Escherichia coli [5]
  MIC: 256 µg/mL (≈ 743 µM)

## COc1ccccc1/C=N\n1c(S)nnc1-c1sc(-c2ccccc2)nc1C
Staphylococcus aureus [12]
  MIC: 31.2 µg/mL (≈ 76.6 µM)
Pseudomonas aeruginosa [13]
  MIC: 1.9 µg/mL (≈ 4.66 µM)
Listeria monocytogenes
  MIC: 1.9 µg/mL (≈ 4.66 µM)
Salmonella typhimurium
  MIC: 62.5 µg/mL (≈ 153 µM)

## O=C(Nc1ccc(Cc2nc3ccccc3s2)cc1)c1ccc(Br)cc1
Escherichia coli [4]
  MIC: 0.03 µg/mL
Escherichia coli [5]
  MIC: 128 µg/mL (≈ 302 µM)

## COc1cccc(/C=C2\SC(c3ccccc3)N(NC(=O)c3ccc(-c4ccccc4)cc3)C2=O)c1 (centres undefined)
Escherichia coli [6]
  MIC: 6.25 µg/mL (≈ 12.7 µM)
Staphylococcus aureus [7]
  MIC: 6.25 µg/mL (≈ 12.7 µM)
Pseudomonas aeruginosa [8]
  MIC: 6.25 µg/mL (≈ 12.7 µM)
Bacillus subtilis [9]
  MIC: 1.56 µg/mL (≈ 3.17 µM)

## O=C(NN1C(=O)/C(=C/c2cccc(Br)c2)SC1c1ccccc1)c1ccc(-c2ccccc2)cc1 (centres undefined)
Escherichia coli [6]
  MIC: 12.5 µg/mL (≈ 23.1 µM)
Staphylococcus aureus [7]
  MIC: 3.12 µg/mL (≈ 5.76 µM)
Pseudomonas aeruginosa [8]
  MIC: 6.25 µg/mL (≈ 11.5 µM)
Bacillus subtilis [9]
  MIC: 6.25 µg/mL (≈ 11.5 µM)

## NC(=O)c1cc(-c2csc(-c3cccc(-c4csc(-c5ccccc5)n4)c3)n2)ccc1O
Enterococcus faecalis [1]
  MIC: 250 µg/mL (≈ 549 µM)
Enterococcus faecalis [3]
  MBIC: 0.008 mg/mL

## O=c1oc2c(Br)cc(Br)cc2cc1-c1csc(N/N=C/c2cn(-c3nc4ccccc4s3)nc2-c2cc3ccccc3oc2=O)n1
Bacillus subtilis [14]
  MIC: 3.9 µg/mL (≈ 5.05 µM)
Staphylococcus aureus [15]
  MIC: > 125 µg/mL
Micrococcus luteus
  MIC: > 125 µg/mL
Escherichia coli [16]
  MIC: 7.8 µg/mL (≈ 10.1 µM)
Pseudomonas aeruginosa [17]
  MIC: > 125 µg/mL
Raoultella planticola
  MIC: 7.8 µg/mL (≈ 10.1 µM)
Staphylococcus aureus [18]
  MIC: 7.8 µg/mL (≈ 10.1 µM)

## O=C(Cc1ccc(F)cc1)Nc1ccc(Cc2nc3ccccc3s2)cc1
Escherichia coli [4]
  MIC: 0.03 µg/mL
Escherichia coli [5]
  MIC: 256 µg/mL (≈ 680 µM)

## c1ccc(-c2csc(-c3cccc(-c4csc(-c5ccccc5)n4)c3)n2)cc1
Enterococcus faecalis [1]
  MIC: 125 µg/mL (≈ 315 µM)
[2]
  MIC: 32 µg/mL (≈ 80.7 µM)
Enterococcus faecalis [3]
  MBIC: 0.002 mg/mL

## O=c1oc2ccc3ccccc3c2cc1-c1csc(N/N=C/c2cn(-c3nc4ccccc4s3)nc2-c2cc3ccccc3oc2=O)n1
Bacillus subtilis [14]
  MIC: 15.6 µg/mL (≈ 23.5 µM)
Staphylococcus aureus [15]
  MIC: 7.8 µg/mL (≈ 11.7 µM)
Micrococcus luteus
  MIC: > 125 µg/mL
Escherichia coli [16]
  MIC: 7.8 µg/mL (≈ 11.7 µM)
Pseudomonas aeruginosa [17]
  MIC: > 125 µg/mL
Raoultella planticola
  MIC: 7.8 µg/mL (≈ 11.7 µM)
Staphylococcus aureus [18]
  MIC: 7.8 µg/mL (≈ 11.7 µM)
